Measured values published in ChEMBL document CHEMBL5096221, “Discovery of a Highly Potent and Orally Bioavailable STAT3 Dual Phosphorylation Inhibitor for Pancreatic Cancer Treatment” (J Med Chem, 2022).

Key:
[1] = target: Signal transducer and activator of transcription 3 (Homo sapiens, UniProt P40763); assay: Inhibition of STAT3 in human HEK293T cells assessed as inhibition of IL-6 stimulated STAT3 phosphorylation by dual-luciferase reporter assay; format: cell-based
[2] = Inhibition of ATP production in human BXPC-3 cells incubated for 20 to 24 hrs by ATP assay kit method; format: functional, cell-based
BXPC-3 [3] = assay: Anti-proliferative activity against human BXPC-3 cells assessed as cell growth inhibition incubated for 72 hrs by MTS assay; format: functional, cell-based; settings: BXPC-3, 72 h
Capan-2 = assay: Anti-proliferative activity against human Capan-2 cells assessed as cell growth inhibition incubated for 72 hrs by MTS assay; format: functional, cell-based; settings: Capan-2, 72 h
[4] = Microsomal stability in dog liver microsomes assessed as intrinsic clearance incubated upto 40 mins in presence of NADPH by LC-MS/MS analysis; format: ADME, Canis lupus familiaris, Microsome; settings: read-out: CLH
[5] = Volume of distribution at steady state in BALB/c mouse at 1 mg/kg,iv measured upto 24 hrs by LC-MS/MS analysis; format: ADME, organism-based; settings: in vivo, iv, 1 mg/kg, 24 h
[6] = Microsomal stability in human liver microsomes assessed as compound remaining incubated for 60 mins in presence of NADPH by LC-MS/MS analysis; format: ADME, Microsome; settings: read-out: Stability
[7] = Microsomal stability in rat liver microsomes assessed as intrinsic clearance incubated upto 40 mins in presence of NADPH by LC-MS/MS analysis; format: ADME, Microsome; settings: read-out: CLH
Cytochrome P450 2D6 = Cytochrome P450 2D6 (Homo sapiens, UniProt P10635); assay: Inhibition of CYP2D6 in human liver microsomes using dextromethorphan as substrate incubated for 60 mins in presence of NADPH by HPLC analysis; format: ADME, Microsome
Cytochrome P450 2D6, sequence (P10635 whole entry): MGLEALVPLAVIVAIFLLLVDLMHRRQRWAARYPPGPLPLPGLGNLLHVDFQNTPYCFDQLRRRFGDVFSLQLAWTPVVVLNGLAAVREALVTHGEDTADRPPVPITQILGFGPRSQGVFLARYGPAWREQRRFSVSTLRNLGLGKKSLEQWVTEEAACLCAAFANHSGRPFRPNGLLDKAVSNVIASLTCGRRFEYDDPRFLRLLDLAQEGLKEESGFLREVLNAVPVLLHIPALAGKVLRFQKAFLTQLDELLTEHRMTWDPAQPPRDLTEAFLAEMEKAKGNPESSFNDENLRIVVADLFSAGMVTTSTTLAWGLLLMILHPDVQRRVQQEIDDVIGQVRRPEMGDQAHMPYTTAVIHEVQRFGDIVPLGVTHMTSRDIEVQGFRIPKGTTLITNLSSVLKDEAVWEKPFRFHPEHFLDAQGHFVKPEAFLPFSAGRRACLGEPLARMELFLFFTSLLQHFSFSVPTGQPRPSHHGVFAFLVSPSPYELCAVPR

Cytochrome P450 2C9 = Cytochrome P450 2C9 (Homo sapiens, UniProt P11712); assay: Inhibition of CYP2C9 in human liver microsomes using tolbutamide as substrate incubated for 60 mins in presence of NADPH by HPLC analysis; format: ADME, Microsome
Cytochrome P450 2C9, sequence (P11712 whole entry): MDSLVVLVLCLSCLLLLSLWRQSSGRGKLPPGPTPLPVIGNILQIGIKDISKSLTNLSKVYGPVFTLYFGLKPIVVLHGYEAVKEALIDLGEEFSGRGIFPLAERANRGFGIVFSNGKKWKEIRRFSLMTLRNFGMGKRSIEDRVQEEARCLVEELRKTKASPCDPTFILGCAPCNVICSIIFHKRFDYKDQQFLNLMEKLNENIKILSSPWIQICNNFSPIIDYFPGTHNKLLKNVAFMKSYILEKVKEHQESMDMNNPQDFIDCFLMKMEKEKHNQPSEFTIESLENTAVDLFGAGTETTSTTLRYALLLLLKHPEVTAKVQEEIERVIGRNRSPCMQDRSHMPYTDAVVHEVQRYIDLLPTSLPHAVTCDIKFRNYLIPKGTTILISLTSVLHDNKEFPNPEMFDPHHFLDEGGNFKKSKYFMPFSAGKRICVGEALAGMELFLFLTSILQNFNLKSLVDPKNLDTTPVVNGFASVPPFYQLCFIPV

[8] = Clearance at steady state in BALB/c mouse at 1 mg/kg,iv measured upto 24 hrs by LC-MS/MS analysis; format: ADME, organism-based; settings: in vivo, iv, 1 mg/kg, 24 h
Cytochrome P450 2C19 = Cytochrome P450 2C19 (Homo sapiens, UniProt P33261); assay: Inhibition of CYP2C19 in human liver microsomes; format: ADME, Microsome
Cytochrome P450 2C19, sequence (P33261 whole entry): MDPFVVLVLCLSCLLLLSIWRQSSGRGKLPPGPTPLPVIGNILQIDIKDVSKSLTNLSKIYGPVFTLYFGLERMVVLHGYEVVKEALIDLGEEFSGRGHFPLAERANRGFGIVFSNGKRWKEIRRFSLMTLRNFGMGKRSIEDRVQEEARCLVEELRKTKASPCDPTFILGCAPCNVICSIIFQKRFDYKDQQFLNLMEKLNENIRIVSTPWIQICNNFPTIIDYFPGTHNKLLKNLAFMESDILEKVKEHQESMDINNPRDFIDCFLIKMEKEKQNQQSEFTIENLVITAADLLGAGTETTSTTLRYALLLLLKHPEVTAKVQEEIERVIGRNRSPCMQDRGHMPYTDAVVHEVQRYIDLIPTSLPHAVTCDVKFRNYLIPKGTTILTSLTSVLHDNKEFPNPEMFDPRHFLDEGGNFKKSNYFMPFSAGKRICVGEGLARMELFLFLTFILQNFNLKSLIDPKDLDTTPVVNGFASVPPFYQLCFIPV

Cytochrome P450 1A2 = target: T1, Cytochrome P450 1A2 (Homo sapiens, UniProt P05177); assay: Inhibition of CYP1A2 in human liver microsomes using phenacetin as substrate incubated for 30 mins in presence of NADPH by HPLC analysis; format: ADME, Microsome
T1 sequence (P05177 whole entry): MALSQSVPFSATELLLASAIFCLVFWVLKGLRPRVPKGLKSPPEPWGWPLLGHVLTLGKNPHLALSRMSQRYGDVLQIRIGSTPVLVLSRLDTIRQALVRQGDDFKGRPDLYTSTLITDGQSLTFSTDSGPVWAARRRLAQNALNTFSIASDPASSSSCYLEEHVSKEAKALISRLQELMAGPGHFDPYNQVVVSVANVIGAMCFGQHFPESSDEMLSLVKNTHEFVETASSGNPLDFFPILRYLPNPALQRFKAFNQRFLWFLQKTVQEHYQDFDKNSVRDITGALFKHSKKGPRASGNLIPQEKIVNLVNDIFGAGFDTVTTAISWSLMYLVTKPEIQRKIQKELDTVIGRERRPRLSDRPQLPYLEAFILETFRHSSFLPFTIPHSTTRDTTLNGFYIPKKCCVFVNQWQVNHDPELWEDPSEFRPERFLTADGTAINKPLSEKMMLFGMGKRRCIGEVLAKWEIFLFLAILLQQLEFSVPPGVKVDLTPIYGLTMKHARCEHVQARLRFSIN

[9] = Microsomal stability in dog liver microsomes assessed as half life incubated upto 40 mins in presence of NADPH by LC-MS/MS analysis; format: ADME, Canis lupus familiaris, Microsome
[10] = AUC (0-24hrs) in BALB/c mouse at 10 mg/kg,po measured upto 24 hrs by LC-MS/MS analysis; format: ADME, organism-based; parameters: dose 10 mg/kg, time < 24 hrs, route po; settings: in vivo
[11] = AUC (0-24hrs) in BALB/c mouse at 1 mg/kg,iv measured upto 24 hrs by LC-MS/MS analysis; format: ADME, organism-based; parameters: time < 24 hrs, dose 1 mg/kg, route iv; settings: in vivo
[12] = Microsomal stability in rat liver microsomes assessed as half life incubated upto 40 mins in presence of NADPH by LC-MS/MS analysis; format: ADME, Microsome
[13] = Microsomal stability in human liver microsomes assessed as intrinsic clearance incubated upto 40 mins in presence of NADPH by LC-MS/MS analysis; format: ADME, Microsome; settings: read-out: CLH
Cytochrome P450 3A4 = Cytochrome P450 3A4 (Homo sapiens, UniProt P08684); assay: Inhibition of CYP3A4 in human liver microsomes using testosterone as substrate in presence of NADPH by HPLC analysis; format: ADME, Microsome
Cytochrome P450 3A4, sequence (P08684 whole entry): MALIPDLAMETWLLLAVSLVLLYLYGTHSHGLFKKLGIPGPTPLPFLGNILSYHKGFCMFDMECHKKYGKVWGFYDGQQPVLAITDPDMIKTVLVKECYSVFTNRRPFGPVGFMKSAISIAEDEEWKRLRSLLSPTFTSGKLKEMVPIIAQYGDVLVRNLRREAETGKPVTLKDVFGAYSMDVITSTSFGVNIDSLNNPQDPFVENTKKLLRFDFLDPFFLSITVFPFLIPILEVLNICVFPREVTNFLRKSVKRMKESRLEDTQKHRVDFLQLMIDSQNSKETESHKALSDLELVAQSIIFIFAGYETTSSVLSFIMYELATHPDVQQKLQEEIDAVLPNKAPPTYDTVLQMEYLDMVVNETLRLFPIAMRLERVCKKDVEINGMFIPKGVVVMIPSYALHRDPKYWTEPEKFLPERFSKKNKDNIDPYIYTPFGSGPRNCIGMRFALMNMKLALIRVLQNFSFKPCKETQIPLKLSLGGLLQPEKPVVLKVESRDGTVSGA

[14] = Microsomal stability in rat liver microsomes assessed as compound remaining incubated for 60 mins in presence of NADPH by LC-MS/MS analysis; format: ADME, Microsome; settings: read-out: Stability
[15] = Oral bioavailability in BALB/c mouse at 10 mg/kg,po measured upto 24 hrs by LC-MS/MS analysis; format: ADME, organism-based; settings: in vivo
[16] = AUC (0-infinity) in BALB/c mouse at 1 mg/kg,iv measured upto 24 hrs by LC-MS/MS analysis; format: ADME, organism-based; parameters: dose 1 mg/kg, time < 24 hrs, route iv; settings: in vivo
[17] = MRT (0 to last) in BALB/c mouse at 10 mg/kg,po measured upto 24 hrs by LC-MS/MS analysis; format: ADME, organism-based; settings: in vivo
[18] = Half life in BALB/c mouse at 10 mg/kg,po measured upto 24 hrs by LC-MS/MS analysis; format: ADME, organism-based; settings: in vivo
[19] = Cmax in BALB/c mouse at 10 mg/kg,po measured upto 24 hrs by LC-MS/MS analysis; format: ADME, organism-based; parameters: time < 24 hrs, dose 10 mg/kg, route po; settings: in vivo
[20] = AUC (0-infinity) in BALB/c mouse at 10 mg/kg,po measured upto 24 hrs by LC-MS/MS analysis; format: ADME, organism-based; parameters: time < 24 hrs, dose 10 mg/kg, route po; settings: in vivo
[21] = Microsomal stability in dog liver microsomes assessed as compound remaining incubated for 60 mins in presence of NADPH by LC-MS/MS analysis; format: ADME, Canis lupus familiaris, Microsome; settings: read-out: Stability
[22] = Microsomal stability in human liver microsomes assessed as half life incubated upto 40 mins in presence of NADPH by LC-MS/MS analysis; format: ADME, Microsome
[23] = Cmax in BALB/c mouse at 1 mg/kg,iv measured upto 24 hrs by LC-MS/MS analysis; format: ADME, organism-based; parameters: dose 1 mg/kg, time < 24 hrs, route iv; settings: in vivo
[24] = MRT (0 to last) in BALB/c mouse at 1 mg/kg,iv measured upto 24 hrs by LC-MS/MS analysis; format: ADME, organism-based; settings: in vivo, iv, 1 mg/kg, 24 h
[25] = Half life in BALB/c mouse at 1 mg/kg,iv measured upto 24 hrs by LC-MS/MS analysis; format: ADME, organism-based; settings: in vivo
BXPC-3 [26] = assay: Antitumor activity against human BXPC-3 cells xenografted BALB/c mouse model assessed as tumor growth inhibition at 30 mg/kg,po administrated once daily for 8 weeks; format: functional; settings: BXPC-3, 1344 h, read-out: TGI
[27] = Toxicity in BALB/c mouse xenografted with human BXPC-3 cells assessed as effect on lung at 30 mg/kg,po administrated once daily for 8 weeks by H and E staining based microscopic analysis; format: organism-based; settings: in vivo, 1344 h
[28] = Toxicity in BALB/c mouse xenografted with human BXPC-3 cells assessed as effect on spleen at 30 mg/kg,po administrated once daily for 8 weeks by H and E staining based microscopic analysis; format: organism-based; settings: in vivo, 1344 h
[29] = Toxicity in BALB/c mouse xenografted with human BXPC-3 cells assessed as effect on kidney at 30 mg/kg,po administrated once daily for 8 weeks by H and E staining based microscopic analysis; format: organism-based; settings: in vivo, 1344 h
[30] = Toxicity in BALB/c mouse xenografted with human BXPC-3 cells assessed as effect on heart at 30 mg/kg,po administrated once daily for 8 weeks by H and E staining based microscopic analysis; format: organism-based; settings: in vivo, 1344 h
[31] = Toxicity in BALB/c mouse xenografted with human BXPC-3 cells assessed as body weight change at 30 mg/kg,po administrated once daily for 8 weeks; format: organism-based; settings: in vivo, 1344 h
[32] = Toxicity in BALB/c mouse xenografted with human BXPC-3 cells assessed as effect on liver at 30 mg/kg,po administrated once daily for 8 weeks by H and E staining based microscopic analysis; format: organism-based; settings: in vivo, 1344 h

Signal transducer and activator of transcription 3, sequence (P40763 whole entry): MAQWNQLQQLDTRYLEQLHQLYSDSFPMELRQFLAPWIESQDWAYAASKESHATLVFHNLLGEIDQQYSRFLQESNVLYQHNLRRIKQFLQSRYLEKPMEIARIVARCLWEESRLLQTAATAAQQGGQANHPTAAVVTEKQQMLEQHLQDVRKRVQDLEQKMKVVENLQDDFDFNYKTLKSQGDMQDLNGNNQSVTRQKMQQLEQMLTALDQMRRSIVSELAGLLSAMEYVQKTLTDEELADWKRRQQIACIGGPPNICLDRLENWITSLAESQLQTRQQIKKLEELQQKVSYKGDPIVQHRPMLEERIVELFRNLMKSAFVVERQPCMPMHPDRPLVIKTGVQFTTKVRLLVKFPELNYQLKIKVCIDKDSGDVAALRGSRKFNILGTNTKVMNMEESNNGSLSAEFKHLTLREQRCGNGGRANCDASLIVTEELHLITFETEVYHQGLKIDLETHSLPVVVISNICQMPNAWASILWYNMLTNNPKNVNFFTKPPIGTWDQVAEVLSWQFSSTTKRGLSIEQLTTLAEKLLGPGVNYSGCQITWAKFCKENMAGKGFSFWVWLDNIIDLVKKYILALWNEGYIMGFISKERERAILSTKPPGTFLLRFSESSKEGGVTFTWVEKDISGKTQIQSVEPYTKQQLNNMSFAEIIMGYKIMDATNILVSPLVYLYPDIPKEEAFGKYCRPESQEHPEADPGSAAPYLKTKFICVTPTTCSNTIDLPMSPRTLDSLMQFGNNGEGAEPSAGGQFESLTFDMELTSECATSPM

## COc1ccccc1-c1noc(-c2cnc(Oc3ccc4cc(C(=O)N5CCN(Cc6ccc(OCC(F)(F)F)cc6)CC5)n(C)c4c3)cn2)n1
[1]
  IC50: 45.5 nM
[2]
  IC50: 56.5 nM
BXPC-3 [3]
  IC50: 1.3 nM
Capan-2
  IC50: 8.6 nM

## Cn1c(C(=O)N2CCN(Cc3ccc(OCC(F)(F)F)cc3)CC2)cc2ccc(Oc3cnc(-c4nc(-c5ccc(F)cc5)no4)cn3)cc21
[4]
  microsomal CLint: 21.5 µL/min/mg
[1]
  IC50: 5.9 nM
[5]
  Vdss: 3735.2 mL/kg
[6]
  remaining at 1 h: 57.6%
[7]
  microsomal CLint: 18.6 µL/min/mg
[2]
  IC50: 2.4 nM
Cytochrome P450 2D6
  IC50: > 50 µM
Cytochrome P450 2C9
  IC50: > 50 µM
[8]
  CL: 74.1 mL/h/kg
Cytochrome P450 2C19
  IC50: > 50 µM
Cytochrome P450 1A2
  IC50: > 50 µM
[9]
  half-life: 64.4 min
[10]
  AUC(0-t) at 24 h: 10900 ng·h/mL
[11]
  AUC(0-t) at 24 h: 8680 ng·h/mL
[12]
  half-life: 74.5 min
[13]
  microsomal CLint: 18.9 µL/min/mg
Cytochrome P450 3A4
  IC50: > 50 µM
BXPC-3 [3]
  IC50: 1.4 nM
[14]
  remaining at 1 h: 55.4%
[15]
  bioavailability: 12.5%
[16]
  AUC(0-inf): 13800 ng·h/mL
[17]
  MRT last at 24 h: 15.6 h
[18]
  half-life: 834 min
[19]
  Cmax: 669 ng/mL
[20]
  AUC(0-inf): 12300 ng·h/mL
[21]
  remaining at 1 h: 50.9%
[22]
  half-life: 73.4 min
Capan-2
  IC50: 6.4 nM
[23]
  Cmax: 2910 ng/mL
[24]
  MRTlast: 15 h
[25]
  half-life: 1060 min

## Cn1c(C(=O)N2CCN(Cc3ccc(OCC(F)(F)F)cc3)CC2)cc2ccc(Oc3cnc(-c4nc(-c5ccc(C(F)(F)F)cc5)no4)cn3)cc21
[1]
  IC50: 22.3 nM
[2]
  IC50: 32.5 nM
BXPC-3 [3]
  IC50: 3.3 nM
Capan-2
  IC50: 8.6 nM

## CC(=O)c1cc2c(o1)C(=O)c1ccccc1C2=O [NAPABUCASIN]
BXPC-3 [26]
  inhibition in vivo at 30 mg/kg: 26.1%
[27]
  Activity: Non-Toxic
[28]
  Activity: Non-Toxic
[29]
  Activity: Non-Toxic
[2]
  IC50: 1960 nM
[30]
  Activity: Non-Toxic
[31]
  Activity: Non-Toxic
BXPC-3 [3]
  IC50: 5310 nM
Capan-2
  IC50: 1590 nM
[32]
  Activity: Non-Toxic

## Cn1c(C(=O)N2CCN(Cc3ccc(OCC(F)(F)F)cc3)CC2)cc2ccc(Oc3cnc(-c4nc(-c5ccc(Cl)cc5)no4)cn3)cc21
[1]
  IC50: 35.7 nM
[2]
  IC50: 25.8 nM
BXPC-3 [3]
  IC50: 4.8 nM
Capan-2
  IC50: 12.6 nM

## Cn1c(C(=O)N2CCN(Cc3ccc(OCC(F)(F)F)c(F)c3)CC2)cc2ccc(Oc3cnc(-c4nc(-c5ccc(C(F)(F)F)cc5)no4)cn3)cc21
[1]
  IC50: 101 nM
[2]
  IC50: 117 nM

## COc1cccc(-c2noc(-c3cnc(Oc4ccc5cc(C(=O)N6CCN(Cc7ccc(OCC(F)(F)F)cc7)CC6)n(C)c5c4)cn3)n2)c1
[1]
  IC50: 19.8 nM
[2]
  IC50: 12.6 nM
BXPC-3 [3]
  IC50: 1.5 nM
Capan-2
  IC50: 6.5 nM

## CCN1CCN(C(=O)c2cc3ccc(Oc4cnc(-c5nc(-c6ccc(C(F)(F)F)cc6)no5)cn4)cc3n2C)CC1
[1]
  IC50: 1110 nM
[2]
  IC50: 1.6 nM
BXPC-3 [3]
  IC50: 1.9 nM
Capan-2
  IC50: 1 nM
